The record followed here is patent US12226424B2, “Target protein degradation compounds, their anti-tumor use, their intermediates and use of intermediates” (ShanghaiTech University, priority 2018, dated 2025).

The test system of one assay is U937 cells. The assay can be described thus: Proliferation inhibition (IC50) on non-BCR-ABL-positive U937 cells.
The test system of assay [1] is K562 cells (BCR-ABL positive). Briefly: Half inhibitory concentration (IC50) on tumor cells, CCK-8, K562. The following applies: read-out: IC50 (nM)/K562 cell line.
Procedure: Determination of Half Inhibitory Concentration (IC50) of PROTAD Compounds on Tumor Cells
K562 cells were seeded in 100 μL of RPMI1640 complete medium at a density of 20,000 cells/well. 100 μL of the inoculated cells were treated with 100 μL diluted PROTAD compound of the present disclosure to be tested at 9 successively decreasing concentrations (starting at the highest concentration of 10 μM; 3-fold serial dilutions). After the cells were treated with the tested drugs for 48 hours, the cell viability determination was performed in accordance with CCK-8 reagent operating instructions. The negative control was DMSO, and positive control was a commercial inhibitor. After CCK-8 treatment for 2 h, the value of O.D.450 was measured using a microplate reader.
Another assay has as its system HEK293 cells. The assay can be described thus: Proliferation inhibition (IC50) on non-BCR-ABL-positive HEK293 cells.
Assay [2] concerns MM1S cells. Briefly: Half inhibitory concentration (IC50) on MM1S tumor cell proliferation (CCK-8). The note with it: Homo sapiens, MM1.S, MM1S cell proliferation inhibitory activity, 72 hours of treatment, read-out: IC50(nM)/MM1S cell line. It counts as cell-based. The procedure: The multiple myeloma cell line used was: MM1S (myeloma (immunoglobulin A lambda), B lymphoblasts), purchased from American Type Culture Collection (ATCC). The medium is RPMI1640 supplemented with 10% FBS and 1% Penicillin-Streptomycin (penicillin and streptomycin). The cells used were identified as correct cells by STR cells, and were negative for mycoplasma through routine inspections.
The cells used in this present disclosure were cultured in a 37° C. incubator containing 5% CO2. The complete cell culture medium was RPMI 1640 medium with 10% fetal bovine serum, and the final concentrations of penicillin and streptomycin were 100 U/mL, respectively.
MM1S cells were seeded in 100 μL RPMI1640 complete medium at a density of 15000 cells/well. 100 μL of the inoculated cells were treated with 0.5 μL diluted thio-substituted compound of formula (IV) to be tested of the present disclosure at 10 successively decreasing concentrations (starting at the highest concentration of 10 μM/1 μM; 5-fold serial dilutions). After 72 hours of treatment, the cell viability was determined according to the CCK-8 reagent operating instructions. The negative control was DMSO, and the positive control was a commercial inhibitor. After CCK-8 treatment for 2 h, the value of O.D.450 was measured using a microplate reader.

Another assay addresses BCR-ABL (Homo sapiens, UniProt P00519). Briefly: Western-blot half-degradation concentration (DC50) / degradation of BCR-ABL in K562 cells. The note with it: read-out: DC50 (nM)/K562 cell line, BCR-ABL protein degradation, 24 hours, Western-blot.
The subject of a further assay is MDA-MB-453 cells. Briefly: Half inhibitory concentration (IC50) on BET-expressing tumor cells, CCK-8, MDA-MB-453. In kind it is cell-based, human. The note with it: 48/72 h, read-out: IC50 (nM)/MDA-MB-453 cell line. The procedure: (§1) BET-expressing cells MV-4-11 cells (human B granulocytic leukemia cells), MDA-MB-231 cells (human breast cancer cells), MDA-MB-468 cells (human breast cancer cells), MDA-MB-453 Cells (human breast cancer cells), MM1S cells (myeloma (immunoglobulin A lambda), B lymphoblasts) and SR cells (human large cell immunoblast lymphoma) were purchased from the American Type Culture Collection (ATCC).
(§2) The cells used in this present disclosure were cultured in a 37° C. incubator containing 5% CO2. The complete cell culture medium was RPMI 1640/IMDM/DMEM medium with 10% fetal bovine serum, and the final concentrations of penicillin and streptomycin were 100 U/mL, respectively. All cells were tested negative for mycoplasma with mycoplasma detection kit before the experiment.
(§3) Determination of the Half Inhibitory Concentration (IC50) of PROTAD Compounds on Tumor Cells
(§4) MV-411 cells, MM1S cells and SR cells were seeded in 100 μL IMDM/RPMI1640/DMEM complete medium at a density of 15000/10000 cells/well; MDA-MB-231 cells, MDA-MB-468 cells, and MDA-MB453 cells were seeded in 100 μL IMDM/RPMI1640/DMEM complete medium at a density of 3000/5000 cells/well, respectively. 100 μL of the inoculated cells were treated with 0.5 μL diluted PROTAD compounds of the present disclosure to be tested at 10 successively decreasing concentrations (starting at the highest concentration of 10 μM; 5-fold serial dilutions). After the cells were treated with the tested drugs 48/72 h, the cell viability was determined according to the CCK-8 reagent manual. The negative control was DMSO, and the positive control was a commercial inhibitor. After CCK-8 treatment for 2 h, the value of O.D.450 was measured using a microplate reader.

For a further assay, the system named is MV-4-11 cells. Briefly: Half inhibitory concentration (IC50) on BET-expressing tumor cells, CCK-8, MV-4-11. The following applies: Homo sapiens, MV4-11, read-out: IC50 (nM)/MV-4-11 cell line, MV-4-11 cells, 48/72 h, CCK-8.
The subject of assay [3] is MM1S cells. Briefly: Half inhibitory concentration (IC50) on BET-expressing tumor cells, CCK-8, MM1S. It counts as cell-based. The following applies: Homo sapiens, MM1.S, 48/72 h, read-out: IC50 (nM)/MM1S cell line. The procedure: as §1, §2, §3, §4
The test system of another assay is MDA-MB-468 cells. The assay can be described thus: Half inhibitory concentration (IC50) on BET-expressing tumor cells, CCK-8, MDA-MB-468. In kind it is cell-based. The note with it: Homo sapiens, 48/72 h, read-out: IC50 (nM)/MDA-MB-468 cell line. The procedure:
as §1, §2, §3, §4

The test system of another assay is MDA-MB-231 cells. The assay can be described thus: Half inhibitory concentration (IC50) on BET-expressing tumor cells, CCK-8, MDA-MB-231. It counts as cell-based. The following applies: Homo sapiens, 48/72 h, read-out: IC50 (nM)/MDA-MB-231 cell line. As to the method: as §1, §2, §3, §4
The mark [4] stands for this setting: Homo sapiens, U-937, read-out: IC50 (nM)/U937 cell line.
[5] abbreviates: Homo sapiens, HEK293, read-out: IC50 (nM)/HEK293 cell line.
Setting [6] is: Homo sapiens, MDA-MB-453, MDA-MB-453 cells.

Each structure is given as a SMILES string. Read-outs that look alike come from different tables or passages of the source.

Sequence of BCR-ABL (P00519 with tags, fused parts or gaps): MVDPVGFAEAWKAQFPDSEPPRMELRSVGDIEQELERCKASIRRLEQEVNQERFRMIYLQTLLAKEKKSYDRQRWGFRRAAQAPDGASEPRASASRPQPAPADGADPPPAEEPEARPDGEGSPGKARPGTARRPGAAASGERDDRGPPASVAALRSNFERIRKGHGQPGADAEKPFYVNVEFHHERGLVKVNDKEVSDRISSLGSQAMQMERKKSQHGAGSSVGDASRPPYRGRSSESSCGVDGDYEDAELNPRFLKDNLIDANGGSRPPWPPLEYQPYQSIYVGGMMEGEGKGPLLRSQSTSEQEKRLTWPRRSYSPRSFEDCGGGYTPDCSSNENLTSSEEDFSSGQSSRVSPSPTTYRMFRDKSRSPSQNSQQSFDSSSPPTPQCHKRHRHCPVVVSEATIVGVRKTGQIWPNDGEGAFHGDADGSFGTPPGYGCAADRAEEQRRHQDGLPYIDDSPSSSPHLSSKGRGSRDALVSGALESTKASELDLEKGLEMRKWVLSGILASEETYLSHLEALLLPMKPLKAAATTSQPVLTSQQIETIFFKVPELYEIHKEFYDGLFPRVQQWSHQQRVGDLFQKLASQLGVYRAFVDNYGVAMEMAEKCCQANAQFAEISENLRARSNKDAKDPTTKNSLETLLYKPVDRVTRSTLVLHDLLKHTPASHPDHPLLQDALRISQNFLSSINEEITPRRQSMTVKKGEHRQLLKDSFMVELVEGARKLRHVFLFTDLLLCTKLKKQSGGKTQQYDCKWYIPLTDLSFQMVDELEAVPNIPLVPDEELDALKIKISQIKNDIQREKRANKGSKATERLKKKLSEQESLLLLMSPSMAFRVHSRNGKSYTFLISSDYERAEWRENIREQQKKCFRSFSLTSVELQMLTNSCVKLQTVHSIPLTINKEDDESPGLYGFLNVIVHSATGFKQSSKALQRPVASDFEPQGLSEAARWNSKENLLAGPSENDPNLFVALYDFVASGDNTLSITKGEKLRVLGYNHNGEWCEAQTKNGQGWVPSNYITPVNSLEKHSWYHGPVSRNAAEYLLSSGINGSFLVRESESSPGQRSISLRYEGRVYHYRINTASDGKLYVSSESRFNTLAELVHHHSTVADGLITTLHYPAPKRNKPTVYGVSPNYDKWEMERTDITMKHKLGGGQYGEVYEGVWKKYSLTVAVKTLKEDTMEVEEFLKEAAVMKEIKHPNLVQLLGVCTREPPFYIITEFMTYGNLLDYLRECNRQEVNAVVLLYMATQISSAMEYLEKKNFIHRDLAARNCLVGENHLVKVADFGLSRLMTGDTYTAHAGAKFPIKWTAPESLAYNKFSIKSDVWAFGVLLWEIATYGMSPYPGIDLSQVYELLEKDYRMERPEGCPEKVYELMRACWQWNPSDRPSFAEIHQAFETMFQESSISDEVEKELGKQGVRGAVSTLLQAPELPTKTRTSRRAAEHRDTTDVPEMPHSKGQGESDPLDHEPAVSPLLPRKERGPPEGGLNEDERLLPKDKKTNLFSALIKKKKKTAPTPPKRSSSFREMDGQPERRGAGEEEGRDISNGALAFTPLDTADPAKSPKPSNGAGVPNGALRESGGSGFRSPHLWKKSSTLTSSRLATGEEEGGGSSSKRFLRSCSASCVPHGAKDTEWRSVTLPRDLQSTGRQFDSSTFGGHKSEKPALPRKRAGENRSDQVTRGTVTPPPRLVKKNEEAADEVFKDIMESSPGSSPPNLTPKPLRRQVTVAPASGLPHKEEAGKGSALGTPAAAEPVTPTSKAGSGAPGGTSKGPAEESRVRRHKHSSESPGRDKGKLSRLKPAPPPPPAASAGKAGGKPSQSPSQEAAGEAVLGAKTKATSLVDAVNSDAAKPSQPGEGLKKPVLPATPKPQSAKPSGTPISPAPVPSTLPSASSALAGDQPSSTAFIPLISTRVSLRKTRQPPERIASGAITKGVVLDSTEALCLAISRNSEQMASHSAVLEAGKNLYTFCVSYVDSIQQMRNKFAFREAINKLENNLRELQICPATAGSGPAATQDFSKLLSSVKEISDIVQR

`COc1cc(Nc2c(C#N)cnc3cc(OCCCN4CCN(C)CC4)c(OC)cc23)c(Cl)cc1Cl` [Bosutinib, reference compound]: the IC50 was greater than 10000 nM in the assay with U937 cells (setting [4]); 92.6 nM in [1] (Homo sapiens, K562, 48 h); greater than 10000 nM in the assay on HEK293 cells (setting [5]).

For `Nc1cccc2c1C(=O)N(C1CCC(=O)NC1=O)C2=O` (centres unmarked) [Pomalidomide, reference compound], the IC50 with MM1S cells [2] was 9.38 nM.

As for `Cc1nc(Nc2ncc(C(=O)Nc3c(C)cccc3Cl)s2)cc(N2CCN(C(=O)CS(=O)(=O)c3cccc4c3C(=O)N(C3CCC(=O)NC3=O)C4=O)CC2)n1` (centres unmarked) [SIAIS151108, N-(2-chloro-6-methylphenyl)-2-((6-(4-(2-((2-(2,6-dioxopiperidin-3-yl)-1,3-dioxoisoindolin-4-yl)sulfonyl)acetyl)piperazin-1-yl)-2-methylpyrimidin-4-yl)amino)thiazole-5-carboxamide], the IC50 with U937 cells (setting [4]) is greater than 10000 nM; in assay [1] (Homo sapiens, K562, 48 h), 206 nM; in the assay with HEK293 cells (setting [5]), greater than 10000 nM. Moreover, the DC50 at BCR-ABL came out at 245 nM.

Consider `Cc1nc(Nc2ncc(C(=O)Nc3c(C)cccc3Cl)s2)cc(N2CCN(C(=O)CCCCCCSc3cccc4c3CN(C3CCC(=O)NC3=O)C4=O)CC2)n1` (centres unmarked) [SIAIS171110, N-(2-chloro-6-methylphenyl)-2-((6-(4-(7-((2-(2,6-dioxopiperidin-3-yl)-1-oxoisoindolin-4-yl)thio)heptanoyl)piperazin-1-yl)-2-methylpyrimidin-4-yl)amino)thiazole-5-carboxamide], for which the IC50 was greater than 10000 nM in the assay with U937 cells (setting [4]); 1.33 nM in assay [1] (Homo sapiens, K562, 48 h); greater than 10000 nM in the assay on HEK293 cells (setting [5]).

`NCCSc1cccc2c1CN(C1CCC(=O)NC1=O)C2=O` (centres unmarked) [SIAIS171123, 3-(4-((2-aminoethyl)thio)-1-oxoisoindolin-2-yl)piperidine-2,6-dione]: the IC50 in the assay on MM1S cells [2] is 71.4 nM.

Turning to `NCCCSc1cccc2c1CN(C1CCC(=O)NC1=O)C2=O` (centres unmarked) [SIAIS171124, 3-(4-((3-aminopropyl)thio)-1-oxoisoindolin-2-yl)piperidine-2,6-dione], the IC50 in the assay on MM1S cells [2] amounted to 56.9 nM.

Regarding `NCCCCSc1cccc2c1CN(C1CCC(=O)NC1=O)C2=O` (centres unmarked) [SIAIS171131, 3-(4-((4-aminobutyl)thio)-1-oxoisoindolin-2-yl)piperidine-2,6-dione], the IC50 in the assay on MM1S cells [2] was 6.61 nM.

As for `NCCCCCSc1cccc2c1CN(C1CCC(=O)NC1=O)C2=O` (centres unmarked) [SIAIS171132, 3-(4-((5-aminopentyl)thio)-1-oxoisoindolin-2-yl)piperidine-2,6-dione], the IC50 in the assay with MM1S cells [2] is 8.27 nM.

Regarding `NCCCCCCSc1cccc2c1CN(C1CCC(=O)NC1=O)C2=O` (centres unmarked) [SIAIS171134, 3-(4-((6-aminohexyl)thio)-1-oxoisoindolin-2-yl)piperidine-2,6-dione], in the assay with MM1S cells [2], the IC50 was found to be 4.77 nM.

As to `NCCCCCCCSc1cccc2c1CN(C1CCC(=O)NC1=O)C2=O` (centres unmarked) [SIAIS171135, 3-(4-((7-aminoheptyl)thio)-1-oxoisoindolin-2-yl)piperidine-2,6-dione], the IC50 in the assay with MM1S cells [2] came to 4.31 nM.

As for `NCCCCCCCCSc1cccc2c1CN(C1CCC(=O)NC1=O)C2=O` (centres unmarked) [SIAIS171136, 3-(4-((8-aminooctyl)thio)-1-oxoisoindolin-2-yl)piperidine-2,6-dione], in the assay on MM1S cells [2], the IC50 came out at 4.22 nM.

As for `Cc1sc2c(c1C)C(c1ccc(Cl)cc1)=N[C@@H](CC(=O)NCCCCCCCSc1cccc3c1CN(C1CCC(=O)NC1=O)C3=O)c1nnc(C)n1-2` (stereo partly drawn) [SIAIS171144, 2-((S)-4-(4-chlorophenyl)-2,3,9-trimethyl-6H-thieno[3,2-f][1,2,4]triazolo[4,3-a][1,4]diazepin-6-yl)-N-(7-((2-(2,6-dioxopiperidin-3-yl)-1-oxoisoindolin-4-yl)thio)heptyl)acetamide], the IC50 in the assay with MDA-MB-453 cells (setting [6]) came to 52.3 nM; in the assay with MDA-MB-453 cells (MDA-MB-453 cells), 63.9 nM; in the assay on MV-4-11 cells it was 0.9 ± 0.8 nM; with MM1S cells [3], 0.7 nM; in the assay with MDA-MB-468 cells, 9.6 ± 2.9 nM; in the assay with MDA-MB-231 cells, 55 ± 31 nM.

For `Cc1sc2c(c1C)C(c1ccc(Cl)cc1)=N[C@@H](CC(=O)NCCCCCCCCSc1cccc3c1CN(C1CCC(=O)NC1=O)C3=O)c1nnc(C)n1-2` (stereo partly drawn) [SIAIS171145, 2-((S)-4-(4-chlorophenyl)-2,3,9-trimethyl-6H-thieno[3,2-f][1,2,4]triazolo[4,3-a][1,4]diazepin-6-yl)-N-(8-((2-(2,6-dioxopiperidin-3-yl)-1-oxoisoindolin-4-yl)thio)octyl)acetamide], the IC50 amounted to 135 nM with MDA-MB-453 cells (setting [6]); 222 nM in the assay on MDA-MB-453 cells (MDA-MB-453 cells); 2 ± 1.8 nM in the assay with MV-4-11 cells; 1.2 nM in the assay on MM1S cells [3]; 948 ± 241 nM in the assay with MDA-MB-468 cells; 537 ± 148 nM with MDA-MB-231 cells.

On to `O=C1CCC(N2Cc3c(SCCCCCCBr)cccc3C2=O)C(=O)N1` (centres unmarked) [SIAIS1216133, 3-(4-(6-bromohexylthio)-1-oxoisoindolin-2-yl)piperidine-2,6-dione], for which the IC50 in the assay on MM1S cells [2] turned out to be 1.27 ± 0.13 nM.

Take `O=C1CCC(N2Cc3c(SCCCCCCCBr)cccc3C2=O)C(=O)N1` (centres unmarked) [SIAIS1216135, 3-(4-(7-bromoheptylthio)-1-oxoisoindolin-2-yl)piperidine-2,6-dione]: the IC50 in the assay with MM1S cells [2] was found to be 1.23 ± 0.42 nM.

Turning to `O=C1CCC(N2Cc3c(SCCCCCCCCBr)cccc3C2=O)C(=O)N1` (centres unmarked) [SIAIS1216137, 3-(4-((8-bromooctyl)thio)-1-oxoisoindolin-2-yl)piperidine-2,6-dione], the IC50 in the assay on MM1S cells [2] was 1.58 ± 0.71 nM.

Regarding `O=C1CCC(N2Cc3c(SCCCCCCCCCCBr)cccc3C2=O)C(=O)N1` (centres unmarked) [SIAIS1220013, 3-(4-((10-bromodecyl)thio)-1-oxoisoindolin-2-yl)piperidine-2,6-dione], the IC50 with MM1S cells [2] turned out to be 1.98 nM.

For the compound `O=C1CCC(N2Cc3c(SCCCCCCCCCCCBr)cccc3C2=O)C(=O)N1` (centres unmarked) [SIAIS1220015, 3-(4-((11-bromoundecyl)thio)-1-oxoisoindolin-2-yl)piperidine-2,6-dione], the IC50 in the assay with MM1S cells [2] was found to be 3.45 nM.

For `Cc1nc(Nc2ncc(C(=O)Nc3c(C)cccc3Cl)s2)cc(N2CCN(C(=O)CCCCCSc3cccc4c3CN(C3CCC(=O)NC3=O)C4=O)CC2)n1` (centres unmarked) [SIAIS 171109], the IC50 with U937 cells (read-out: IC50 (nM)/U937 cell line, U937 cells, highest concentration 10 μM) is greater than 10000 nM; in [1] (K562 cells, 48 hours, CCK-8), 0.53 nM; with HEK293 cells (read-out: IC50 (nM)/HEK293 cell line, HEK293 cells, highest concentration 10 μM), greater than 10000 nM.
